Structures can show the parent of a compound that is named as a salt. Calls of active or inactive are those of the source.

The AC50 is the midpoint of the concentration-response curve, whichever way the signal moves. As usually defined, the EC50 is the concentration giving half of the maximal effect. The IC50 is the concentration needed to halve the response being measured.

The target in test [1] is Paired box protein Pax-8 (Homo sapiens, UniProt Q06710). The test can be described thus: inhibitors of PAX8-driven TPO luciferase reporter, dose response, RMG-I cells, cherry-pick (AID 687027).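 Further: luciferase reporter driven by Pax8 target thyroperoxidase promoter measured by SteadyGlo luminescence.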 It counts as functional, cell-based.
Test [2] in a line: A2780 ovarian cancer cell cytotoxicity, dose response, cytotoxicity control, plate reader, dry powder samples (AID 743046). It counts as functional, cell-based.
Test [3] can be described thus: NIH:OVCAR-3 ovarian cancer cell cytotoxicity, dose response, PAX8 inhibitor project, plate reader, dry powder samples (AID 743044). It counts as functional, cell-based.
The nature of test [4]: IGROV1 ovarian cancer cell cytotoxicity, dose response, PAX8 inhibitor project, plate reader, dry powder samples (AID 743043). It counts as functional, cell-based. Particulars: IGROV-1.
A short description of test [5]: non-specific cell cytotoxicity, dose response, cytotoxicity control for PAX8 inhibitor project, plate reader, dry powder samples (AID 743021). It counts as functional, cell-based.
Test [6] in a line: cytotoxicity in OVCAR8 ovarian cancer cells, dose response, PAX8 project, cell-based, plate reader, dry powder samples (AID 743197). It counts as functional. Particulars: OVCAR-8.
Test [7] in a line: PAX2 cell-based inhibition, dose response, selectivity assay for PAX8 inhibitor project, plate reader, dry powder samples (AID 743048).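 Further: HEK293 cells carrying a WT1 promoter luciferase reporter driven by expressed Pax2; potency is for inhibition of Pax2 driven reporter signal.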 It counts as functional.
A short description of test [8]: cytotoxicity in COV362 ovarian cancer cells, dose response, cytotoxicity control for PAX8 inhibitor project, cell-based, plate reader, dry powder, SA12 (AID 743144). It counts as functional.
Test [9] can be described thus: PAX5 activity inhibitors, dose response, selectivity assay for PAX8 inhibitor project, cell-based, plate reader, dry powder samples (AID 743047).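 Further: HEK293 cells carrying a Pax5 driven CD19 promoter luciferase reporter; potency of inhibitors that lower reporter luminescence.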 It counts as functional.
Test [10] is described as follows: cytotoxicity in COV434 cells, dose response, cytotoxicity control for PAX8 inhibitor project, cell-based, plate reader, dry powder, SA7 (AID 743145). It counts as functional.
Test [11] is described as follows: cytotoxicity in OV-90 ovarian cancer cells, dose response, PAX8 inhibitor project, cell-based, plate reader, dry powder, SA8 (AID 743149). It counts as functional.
A short description of test [12]: cytotoxicity dependent on PAX8, dose response, cell-based, plate reader, dry powder (AID 743049). It counts as functional.
Test [13] concerns the target Metabotropic glutamate receptor 5 (Rattus norvegicus, UniProt P31424). Put plainly: Identification of a glycine sulfonamide based non-MPEP site positive allosteric potentiator (PAM) of mGlu5 (calcium_assay). It counts as functional.
For test [14], the target named is NAD-dependent protein deacylase sirtuin-5, mitochondrial (Homo sapiens, UniProt Q9NXA8). The test can be described thus: SIRT5 deacylase inhibitors, dose response, biochemical, fluorescence imaging, cherry-pick, set 6 (AID 720597).
In test [15] the target is Potassium channel subfamily K member 3 (Homo sapiens, UniProt O14649). The test can be described thus: TASK1 (KCNK3) potassium channel inhibitors, SAR follow-up, CHO cells, FluxOR thallium flux (AID 652212). It counts as functional.
Test [16] is described as follows: HEK293 cell cytotoxicity, dose response, cytotoxicity control, cherry-picks, set 5 (AID 1053117). It counts as functional, cell-based.
A short description of test [17]: inhibitors of fibronectin matrix deposition, dose response, AH1F cells, Alexa488-FN fluorescence, cherry-picks (AID 1035475). It counts as functional, cell-based.
In test [18] the target is Endoplasmic reticulum aminopeptidase 1 (Homo sapiens, UniProt Q9NZ08). The test can be described thus: ERAP1 aminopeptidase inhibitors, dose response, biochemical, cherry-pick, set 2, plate reader (AID 743314).
A short description of test [19]: MITF Orthogonal Assay: SK-MEL-5 CTG Assay Measured in Cell-Based System Using Plate Reader - 2084-02_Inhibitor_Dose_DryPowder_Activity_Set7. It counts as functional.
Test [20] is described as follows: MITF: Counter assay: A375 proliferation Measured in Cell-Based System Using Plate Reader - 2084-03_Inhibitor_Dose_DryPowder_Activity_Set8. It counts as functional. Particulars: A-375.
The nature of test [21]: TRPM1 promoter luciferase reporter signal decrease, dose response, MITF inhibitor project, cell-based, SK-MEL-5, dry powder, set 8 (AID 624430). It counts as functional. (In general: Reporter assays use an easily measured gene product as a stand-in for the process of interest.)
Test [22] can be described thus: HEK293T cell cytotoxicity, dose response, cytotoxicity control, luminescence plate reader, powder samples, set 4 (AID 651863). It counts as functional, cell-based. Particulars: HEK293.
Test [23] can be described thus: P. falciparum 3D7-ScDHODH growth inhibitors, dose response, SYBR Green, dry powder samples (AID 1159570).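 Further: parasite growth measured after 72 hours of compound exposure.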 It counts as functional, cell-based.
Test [24] is described as follows: HepG2 cell cytotoxicity, dose response, cytotoxicity control, plate reader, dry powder samples (AID 1159569).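 Further: inhibitor potency with signal falling toward the positive control level.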 It counts as functional, cell-based.
Test [25] in a line: P. falciparum Dd2 growth inhibitors, dose response, SYBR Green, cherry-picked samples (AID 1159567). It counts as functional, cell-based.
Test [26] can be described thus: P. falciparum Dd2 growth inhibitors, dose response, SYBR Green, dry powder samples (AID 1159566).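 Further: potency for growth inhibition with lower SYBR green DNA signal.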 It counts as functional, cell-based.
Test [27] in a line: HepG2 cell cytotoxicity, dose response, cytotoxicity control, cherry-picked samples (AID 1159577). It counts as functional, cell-based.
Test [28] can be described thus: P. falciparum ATP4 D1247Y mutant growth inhibitors, dose response, NITD609-resistant line, SYBR Green, dry powder (AID 1159571).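 Further: parasites synchronized at ring stage by sorbitol before testing.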 It counts as functional, cell-based.
Test [29] in a line: HeLa 2N DNA content increase, dose response, cell-based, IC50 (AID 1117349). It counts as functional.
Test [30] is described as follows: cells. It counts as functional, cell-based. Particulars: INS-1E.
The nature of test [31]: HeLa 4N DNA content increase, dose response, cell-based, IC50 (AID 1117351). It counts as functional.

Paired box protein Pax-8, sequence (Q06710 whole entry): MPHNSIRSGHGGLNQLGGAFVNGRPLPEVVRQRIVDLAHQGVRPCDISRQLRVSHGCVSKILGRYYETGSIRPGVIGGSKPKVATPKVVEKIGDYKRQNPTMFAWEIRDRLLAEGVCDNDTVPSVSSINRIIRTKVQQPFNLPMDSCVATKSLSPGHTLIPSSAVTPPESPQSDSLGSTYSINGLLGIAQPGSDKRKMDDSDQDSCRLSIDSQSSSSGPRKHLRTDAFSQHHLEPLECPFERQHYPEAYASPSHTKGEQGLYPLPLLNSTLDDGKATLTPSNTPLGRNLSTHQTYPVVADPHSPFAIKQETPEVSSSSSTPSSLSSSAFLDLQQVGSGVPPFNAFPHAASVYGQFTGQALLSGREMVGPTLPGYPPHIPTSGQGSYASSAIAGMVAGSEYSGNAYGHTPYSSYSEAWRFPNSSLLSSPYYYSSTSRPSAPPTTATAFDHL
Potassium channel subfamily K member 3, sequence (O14649 whole entry): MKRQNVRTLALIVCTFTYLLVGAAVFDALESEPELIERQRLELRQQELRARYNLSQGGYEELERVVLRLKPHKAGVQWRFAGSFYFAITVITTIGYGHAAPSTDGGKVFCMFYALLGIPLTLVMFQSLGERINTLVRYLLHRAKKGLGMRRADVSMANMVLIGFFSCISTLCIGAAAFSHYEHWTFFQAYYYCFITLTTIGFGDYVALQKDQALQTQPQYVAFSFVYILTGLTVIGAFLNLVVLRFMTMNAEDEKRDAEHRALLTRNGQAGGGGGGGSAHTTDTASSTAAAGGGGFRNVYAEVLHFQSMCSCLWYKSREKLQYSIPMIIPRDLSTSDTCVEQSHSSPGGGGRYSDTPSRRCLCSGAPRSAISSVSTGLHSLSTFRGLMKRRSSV
Endoplasmic reticulum aminopeptidase 1, sequence (Q9NZ08 whole entry): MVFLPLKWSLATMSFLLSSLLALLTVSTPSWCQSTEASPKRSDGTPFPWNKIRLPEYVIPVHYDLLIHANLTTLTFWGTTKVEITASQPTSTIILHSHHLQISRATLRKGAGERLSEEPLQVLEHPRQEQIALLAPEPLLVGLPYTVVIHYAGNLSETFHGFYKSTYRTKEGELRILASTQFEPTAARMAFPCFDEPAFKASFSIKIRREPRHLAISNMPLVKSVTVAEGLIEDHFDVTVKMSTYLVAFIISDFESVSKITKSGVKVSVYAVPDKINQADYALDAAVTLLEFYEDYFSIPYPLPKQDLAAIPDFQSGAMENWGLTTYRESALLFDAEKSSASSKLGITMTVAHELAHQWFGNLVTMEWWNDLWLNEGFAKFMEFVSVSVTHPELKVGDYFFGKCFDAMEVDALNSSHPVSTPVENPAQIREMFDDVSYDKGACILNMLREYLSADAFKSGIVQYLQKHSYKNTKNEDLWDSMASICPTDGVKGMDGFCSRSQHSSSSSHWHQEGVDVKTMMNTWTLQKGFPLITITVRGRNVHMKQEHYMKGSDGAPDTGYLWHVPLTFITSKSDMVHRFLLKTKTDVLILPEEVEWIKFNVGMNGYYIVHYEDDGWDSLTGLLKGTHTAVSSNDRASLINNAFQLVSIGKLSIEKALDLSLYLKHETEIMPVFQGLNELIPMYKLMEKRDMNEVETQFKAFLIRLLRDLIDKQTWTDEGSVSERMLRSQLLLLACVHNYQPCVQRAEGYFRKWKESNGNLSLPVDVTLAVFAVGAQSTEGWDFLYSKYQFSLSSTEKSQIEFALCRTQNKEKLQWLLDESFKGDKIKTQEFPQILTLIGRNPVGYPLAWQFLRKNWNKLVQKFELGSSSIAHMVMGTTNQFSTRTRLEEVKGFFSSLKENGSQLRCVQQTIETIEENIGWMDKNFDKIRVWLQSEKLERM
NAD-dependent protein deacylase sirtuin-5, mitochondrial, sequence (Q9NXA8 whole entry): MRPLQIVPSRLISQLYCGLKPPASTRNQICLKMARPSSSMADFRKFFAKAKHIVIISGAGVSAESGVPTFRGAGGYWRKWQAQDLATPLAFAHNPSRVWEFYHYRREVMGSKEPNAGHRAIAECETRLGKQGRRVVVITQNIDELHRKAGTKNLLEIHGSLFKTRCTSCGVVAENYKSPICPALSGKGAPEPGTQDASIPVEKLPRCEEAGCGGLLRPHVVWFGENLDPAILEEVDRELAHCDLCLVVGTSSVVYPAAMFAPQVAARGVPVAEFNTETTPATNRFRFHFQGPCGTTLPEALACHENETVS
Metabotropic glutamate receptor 5, sequence (P31424 whole entry): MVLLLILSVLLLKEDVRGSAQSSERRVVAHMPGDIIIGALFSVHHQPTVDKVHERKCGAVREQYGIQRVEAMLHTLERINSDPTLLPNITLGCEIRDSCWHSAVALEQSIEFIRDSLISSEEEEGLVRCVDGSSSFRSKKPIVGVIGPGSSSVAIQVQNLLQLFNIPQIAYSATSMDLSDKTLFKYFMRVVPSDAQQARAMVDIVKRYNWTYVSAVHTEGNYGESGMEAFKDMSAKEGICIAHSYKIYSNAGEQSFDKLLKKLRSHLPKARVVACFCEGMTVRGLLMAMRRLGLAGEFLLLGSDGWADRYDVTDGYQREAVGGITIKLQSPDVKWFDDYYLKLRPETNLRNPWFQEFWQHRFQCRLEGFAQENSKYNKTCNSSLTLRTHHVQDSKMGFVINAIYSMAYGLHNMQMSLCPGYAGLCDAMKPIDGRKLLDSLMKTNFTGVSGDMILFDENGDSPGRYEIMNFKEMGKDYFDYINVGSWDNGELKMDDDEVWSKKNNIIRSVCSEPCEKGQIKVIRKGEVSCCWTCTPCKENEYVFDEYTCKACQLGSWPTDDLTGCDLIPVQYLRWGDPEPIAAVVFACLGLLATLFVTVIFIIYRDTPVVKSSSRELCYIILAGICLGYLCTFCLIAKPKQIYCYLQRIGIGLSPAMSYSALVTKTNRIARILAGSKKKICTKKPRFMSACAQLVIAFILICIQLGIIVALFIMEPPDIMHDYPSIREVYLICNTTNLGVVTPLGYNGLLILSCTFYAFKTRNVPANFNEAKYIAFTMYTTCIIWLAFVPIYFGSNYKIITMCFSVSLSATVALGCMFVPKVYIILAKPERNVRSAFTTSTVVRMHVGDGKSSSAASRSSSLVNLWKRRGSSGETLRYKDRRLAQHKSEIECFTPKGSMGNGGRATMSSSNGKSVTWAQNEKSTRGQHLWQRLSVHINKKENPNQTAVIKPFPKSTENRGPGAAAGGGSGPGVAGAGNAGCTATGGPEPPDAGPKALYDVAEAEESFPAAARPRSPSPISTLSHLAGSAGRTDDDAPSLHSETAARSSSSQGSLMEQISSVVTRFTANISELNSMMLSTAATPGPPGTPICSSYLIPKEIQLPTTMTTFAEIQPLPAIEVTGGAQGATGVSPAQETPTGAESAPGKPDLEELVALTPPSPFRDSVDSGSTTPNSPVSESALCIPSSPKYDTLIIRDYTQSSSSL

`COc1ccc(S(=O)(=O)Nc2ccc3c(c2)C(=O)N([C@H](C)CO)C[C@H](C)[C@@H](CN(C)S(=O)(=O)c2ccc(Cl)cc2)OCCCC[C@H](C)O3)cc1`: the AC50 in [1] was 7.7 µM (active); in test [2], 21.4 µM (active); in [3] it was 16 µM (active); in test [4], 24.8 µM (active); in test [5] it was 51.9 µM (active); in test [6] it was > 70 µM (inactive).
As to `N#C[C@H]1[C@H](c2ccc(C#CC3CCCC3)cc2)[C@@H](CO)N1C(=O)Nc1ccc(F)cc1`, the AC50 was 5.59 µM (active) in [1]; 7.21 µM (active) in [7]; 32.1 µM (active) in [8]; 42.8 µM (active) in test [3]; 7.84 µM (active) in test [9]; 20.4 µM (active) in test [10]. The AC50 in test [11] was 29 µM (active); in [6], 27.2 µM (active); in test [12], 19.1 µM (active).
`CC(C)(C)NC(=O)CN(c1cc(C(F)(F)F)ccc1Cl)S(C)(=O)=O`: the EC50 in [13] was > 30 µM (inactive).
Turning to `C[C@H](CO)N1C[C@H](C)[C@H](CN(C)Cc2ccncc2)Oc2ncc(C#CCN(C)C)cc2C1=O`, the AC50 in test [14] was > 30 µM (inactive).
For `CCOc1ccccc1NC(=O)c1cccc(NC(=O)c2ccc(OC)cc2)c1`, the IC50 in [15] was 0.3 µM (active).
Regarding `O=S(=O)(c1cccc(F)c1)N1CC[C@H]2[C@H](CO)Nc3ccc(-c4cccc(F)c4)cc3[C@H]21`, the AC50 was > 52 µM (inactive) in test [16] and 41.9 µM (active) in test [17].
On to `CCNC(=O)[C@@H]1[C@@H](CO)[C@@H]2Cn3c(ccc(/C=C/c4ccccc4)c3=O)[C@H]1N2C(=O)C1CCCC1`, for which the AC50 in test [18] is 9.24 µM (active).
Regarding `CN1CCN(C2=C(Nc3ccc(I)cc3)C(=O)c3ccccc3C2=O)CC1`, the AC50 is 8.33 µM (active) in test [19], 26 µM (active) in test [20] and 7.32 µM (active) in test [21].
`CCOC(=O)C(C(=O)OCC)c1cc(CNS(=O)(=O)c2ccc(C)cc2C)c2ccccc2n1`: in test [22], the AC50 is > 52 µM (inactive).
With `Cc1cccc(S(=O)(=O)N2C[C@@H]3N[C@H](C2)[C@H]3c2ccc(-c3ccncc3)cc2)c1`, the AC50 in test [23] was 2.12 µM (active); in test [24] it was 41.5 µM (active); in test [25], 1.84 µM (active); in [26] it was 1.48 µM (active); in test [27], > 39 µM (inactive); in test [28], 3.58 µM (active).
Take `Cc1ccccc1C(OCCN(C)C)c1ccccc1` (centres undefined) [ORPHENADRINE CITRATE]: the IC50 is > 10 µM (inactive) in test [29], > 33.3 µM (inactive) in [30] and > 10 µM (inactive) in test [31].
